Data taken from patent US11814376B2, “Hepatitis b core protein modulators” (Assembly Biosciences, Inc., priority 2015, dated 2023).

What was measured:
[1] = system: HBV viral load in AD38 cells; experiment: Viral load production in AD38 cells, quantitative PCR of the core sequence in supernatant; assay type: cell-based; details: 10 μM compound, 6 days at 37° C., supernatant qPCR, relative to DMSO control; for activity at 10 µM: Hepatitis B virus, 144 h, read-out: AD38 Viral Load (%) (VL with cmpd/VL in DMSO control) at 10 μM
Description: (§1) Example 2: Assay Measuring Activity of Compounds on Viral Production in and on Viability of AD38 Cells
(§2) AD38 cells were then re-suspended with 10 mL of Treatment Medium and counted. Wells of a collagen coated 96-well NUNC microtiter plate were seeded at 50,000/well in 180 μL of Treatment Medium, and 20 μL of in treatment media with either 10% DMSO (Control) or a 10× solution of compound in 10% DMSO was added. Plates were incubated for 6 days at 37° C.
Viral load production was assayed by quantitative PCR of the core sequence. […] The PCR mixture was incubated at 45° C. for 5 minutes, then 95° C. for 10 min, followed by 40 cycles of 10 seconds at 95° C. and 20 seconds at 60° C. Viral load was quantitated against known standards by using ViiA™ 7 Software. Viral load in the supernatant from wells with treated cells were compared against viral load in supernatant from DMSO control wells (>3 per plate).

AD38 cells = experiment: Viability of AD38 cells (Promega CellTiter-Glo); assay type: cell-based; details: 10 μM compound, 6 days, CellTiter-Glo luminescence normalized to DMSO control (100%)
Description: as §1, §2
At the end of compound treatment period cell viability was assessed using a Promega CellTiter-Glo protocol. All supernatant was removed the previously treated 96-well microtiter plate, and 50 μL Tetracycline-free treatment medium (DMEM/F12 (1:1), 1× Pen/step (cat #: 30-002-CL, Mediatech, Inc), with 2% FBS, Tet-system approved (cat #: 631106, Clontech), and 1% DMSO was added back to each well. Another 50 μL of CellTiter-Glo reagent solution (Promega, G7573) was then added at room temperature and the contents mixed for 2 minutes on an orbital shaker to induce cell lysis. This was followed by incubation at room temperature for 10 minutes to stabilize the luminescent signal. The luminescence was recorded for 0.2 seconds per well on a Tecan multimode plate reader (Infinite M1000 pro). The luminescent signal from each well was normalized against that of untreated (DMSO) control wells. All results were reported percent viability (with controls being 100%).

Row | SMILES | AD38 Viral Load (%) (VL with cmpd/VL in DMSO control) at 10 μM [1] | AD38 Viability Normalized Result (cmpd/DMSO %) at 10 μM (AD38 cells) | activity at 10 µM [1]
1 | CC(C)(C)OC(=O)NCCCSc1ccc(-c2ncc(CNC(=O)c3ccc4c(c3)NC(=O)c3ccccc3S4(=O)=O)s2)cc1 [11007-A, tert-butyl (3-((4-(5-((5,5-dioxido-11-oxo-10, 11-dihydrodibenzo [b, f] [1, 4]thiazepine-8-carboxamido)methyl)thiazol-2-yl)phenyl)thio)propyl) carbamate] | 0.9% | 75% | –
2 | CC(C)(C)OC(=O)N1CCN(C(=O)c2ccc(-c3ncc(CNC(=O)c4ccc5c(c4)NC(=O)c4ccccc4S5(=O)=O)s3)cc2)CC1 [11016-A, tert-butyl 4-(4-(5-((5,5-dioxido-11-oxo-10, 11-dihydrodibenzo [b, f] [1, 4]thiazepine-8-carboxamido)methyl)thiazol-2-yl)benzoyl) piperazine-1-carboxylate] | 6.7% | 103% | –
3 | CC(C)(C)OC(=O)NCCNC(=O)c1ccc(-c2ncc(CNC(=O)c3ccc4c(c3)NC(=O)c3ccccc3S4(=O)=O)s2)cc1 [11017-A, tert-butyl (2-(4-(5-((5,5-dioxido-11-oxo-10, 11-dihydrodibenzo [b, f] [1, 4]thiazepine-8-carboxamido)methyl)thiazol-2-yl)benzamido)ethyl)carbamate] | – | 102% | 8.8%
4 | CC(C)(C)OC(=O)N1CCN(c2ccc(-c3ncc(CNC(=O)c4ccc5c(c4)NC(=O)c4ccccc4S5(=O)=O)s3)cn2)CC1 [11019-A, tert-butyl 4-(5-(5-((5,5-dioxido-11-oxo-10, 11-dihydrodibenzo [b, f] [1, 4]thiazepine-8-carboxamido)methyl)thiazol-2-yl)pyridin-2-yl) piperazine-1-carboxylate] | 1.0% | 95% | –
5 | CC(C)(C)OC(=O)NCCCS(=O)(=O)c1ccc(-c2ncc(CNC(=O)c3ccc4c(c3)NC(=O)c3ccccc3S4(=O)=O)s2)cc1 [11032-A, tert-butyl (3-((4-(5-((5,5-dioxido-11-oxo-10, 11-dihydrodibenzo [b, f] [1, 4]thiazepine-8-carboxamido)methyl)thiazol-2-yl)phenyl)sulfonyl)propyl) carbamate] | 12.9% | 110% | –
6 | O=C(NCc1cnc(-c2ccc(SCCCO)cc2)s1)c1ccc2c(c1)NC(=O)c1ccccc1S2(=O)=O [11063-A, N-((2-(4-((3-hydroxypropyl)thio)phenyl)thiazol-5-yl)methyl)-11-oxo-10, 11-dihydrodibenzo [b, f] [1, 4] thiazepine-8-carboxamide 5,5-dioxide] | – | 104% | 0.4%
7 | O=C(NCc1cnc(-c2ccc(S(=O)(=O)CCCO)cc2)s1)c1ccc2c(c1)NC(=O)c1ccccc1S2(=O)=O [11063-B, N-((2-(4-((3-hydroxypropyl)sulfonyl)phenyl)thiazol-5-yl)methyl)-11-oxo-10, 11-dihydrodibenzo [b, f] [1, 4] thiazepine-8-carboxamide 5,5-dioxide] | – | 95% | 5.4%
8 | CC(C)(C)OC(=O)N1CCC[C@@H]1COc1ccc(-c2ncc(CNC(=O)c3ccc4c(c3)NC(=O)c3ccccc3S4(=O)=O)s2)cc1 [11104-A, tert-butyl (R)-2-((4-(5-((5,5-dioxido-11-oxo-10, 11-dihydrodibenzo [b, f] [1, 4]thiazepine-8-carboxamido)methyl)thiazol-2-yl)phenoxy)methyl) pyrrolidine-1-carboxylate] | – | 74% | 0.9%
9 | COC(=O)[C@@H]1CCCN1CCCOc1ccc(-c2ncc(CNC(=O)c3ccc4c(c3)NC(=O)c3ccccc3S4(=O)=O)s2)cc1 [11106-A] | – | 90% | 3.6%
10 | COC(=O)C1CCN(CCCOc2ccc(-c3ncc(CNC(=O)c4ccc5c(c4)NC(=O)c4ccccc4S5(=O)=O)s3)cc2)C1 (stereo not shown) [11107-A, methyl 1-(3-(4-(5-((5,5-dioxido-11-oxo-10, 11-dihydrodibenzo [b, f] [1, 4]thiazepine-8-carboxamido)methyl)thiazol-2-yl)phenoxy)propyl) pyrrolidine-3-carboxylate] | 7.7% | 100% | –
11 | O=C(NCc1cnc(-c2ccc(OCCCOn3nnc4cccnc43)cc2)s1)c1ccc2c(c1)NC(=O)c1ccccc1S2(=O)=O [11108-B, N-((2-(4-(3-((3H-[1,2,3]triazolo[4,5-b]pyridin-3-yl)oxy)propoxy)phenyl)thiazol-5-yl)methyl)-11-oxo-10,11-dihydrodibenzo[b, f] [1,4]thiazepine-8-carboxamide 5,5-dioxide] | – | 101% | 0.8%
12 | CC(C)c1cnn(-c2ncc(CNC(=O)c3ccc4c(c3)NC(=O)c3ccccc3S4(=O)=O)s2)c1 [11117-A] | – | 110% | 0.3%
13 | Cc1c(C(=O)NCc2cnc(-c3ccc(OCCCN(C)C)cc3)s2)ccc2c1NC(=O)c1ccccc1S2 [C20-01] | – | 98% | 1.5%
14 | Cc1c(C(=O)NCc2cnc(-n3cccn3)s2)ccc2c1NC(=O)c1ccccc1S2 [C20-02] | – | 95% | 0.5%
15 | Cc1c(C(=O)NCc2cnc(-c3ccc(OCCCN(C)C)cc3)s2)ccc2c1NC(=O)c1ccccc1S2(=O)=O [C38-01] | – | 99% | 1.3%
16 | Cc1c(C(=O)NCc2cnc(-n3cccn3)s2)ccc2c1NC(=O)c1ccccc1S2(=O)=O [C38-02] | – | 94% | 0.5%

Row | SMILES | AD38 Viral Load (%) (VL with cmpd/VL in DMSO control) at 10 μM [1] | AD38 Viability Normalized Result (cmpd/DMSO %) at 10 μM (AD38 cells) | activity at 10 µM [1]
17 | Cc1c(C(=O)NCc2cnc(-c3ccc(OCCCN(C)C)cc3)s2)ccc2c1NC(=O)c1ccccc1O2 [C44-01] | – | 97% | 2.6%
18 | CN(C)CCCOc1ccc(-c2ncc(CNC(=O)c3ccc4c(c3Cl)NC(=O)c3ccccc3S4(=O)=O)s2)cc1 [C51-01] | – | 99% | 0.4%
19 | O=C1Nc2c(ccc(C(=O)NCc3cnc(-n4cccn4)s3)c2Cl)S(=O)(=O)c2ccccc21 [C51-02] | – | 98% | 0.2%
20 | O=C(NCc1cnc(C(F)(F)F)s1)c1ccc2c(c1)NC(=O)c1ccccc1S2 [compound 1421] | – | 104% | 1.3%
21 | CNc1ncc(CNC(=O)c2ccc3c(c2)NC(=O)c2ccccc2S3)s1 [compound 1424] | – | 97% | 0.5%
22 | CN(C)c1ncc(CNC(=O)c2ccc3c(c2)NC(=O)c2ccccc2S3)s1 [compound 1425] | – | 100% | 0.6%
23 | O=C(NCc1scnc1C(F)(F)F)c1ccc2c(c1)NC(=O)c1ccccc1S2 [compound 1431] | – | 103% | 5.5%
24 | O=C(Nc1ncc(Cl)s1)c1ccc2c(c1)NC(=O)c1ccccc1S2(=O)=O [compound 1473] | – | 79% | 26.5%
25 | Cc1cc2c(cc1C(=O)NCc1cncs1)NC(=O)c1ccccc1S2 [compound 1496] | – | 57% | 9.6%
26 | O=C(NCc1cnc(-c2ccccc2)s1)c1ccc2c(c1)NC(=O)c1ccccc1S2(=O)=O [compound 1525] | – | 104% | 0.2%
27 | Cc1ncc(CNC(=O)c2ccc3c(c2)NC(=O)c2ccccc2[S+]3[O-])s1 (stereo not shown) [compound 1526] | – | 94% | 0.8%
28 | Cc1ncc(CNC(=O)c2ccc3c(c2)NC(=O)c2ccccc2S3(=O)=O)s1 [compound 1528] | – | 76% | 0.8%
29 | Nc1ncc(CNC(=O)c2ccc3c(c2)NC(=O)c2ccccc2S3(=O)=O)s1 [compound 1529] | – | 97% | 2%
30 | Cc1ncc(CNC(=O)c2ccc3c(c2C)NC(=O)c2ccccc2S3)s1 [compound 1535] | – | 84% | 0.8%
31 | Cc1ncc(CNC(=O)c2ccc3c(c2)NC(=O)c2cc(Cl)ccc2S3)s1 [compound 1541] | – | 98% | 3.7%
32 | Cc1ncc(CNC(=O)c2ccc3c(c2)NC(=O)c2ccc(Cl)cc2S3)s1 [compound 1544] | – | 88% | 2.6%
